Test results as given in ChEMBL document CHEMBL6092169, “Development of selective heterocyclic PDE4 inhibitors for treatment of psoriasis” (Eur J Med Chem, 2024).
Activity calls are given as the source filed them. The rule behind the calls is not given here.

Experiments:
[1] = molecular target: T1, 3',5'-cyclic-AMP phosphodiesterase 4D (Homo sapiens, UniProt Q08499); experiment: Inhibition of full-length PDE4D2 (unknown origin) using FAM-cAMP as substrate preincubated with compound for 15 mins followed by substrate addition and measured after 30 mins by fluorescence polarization based IMAP assay
T1 sequence (Q08499 whole entry): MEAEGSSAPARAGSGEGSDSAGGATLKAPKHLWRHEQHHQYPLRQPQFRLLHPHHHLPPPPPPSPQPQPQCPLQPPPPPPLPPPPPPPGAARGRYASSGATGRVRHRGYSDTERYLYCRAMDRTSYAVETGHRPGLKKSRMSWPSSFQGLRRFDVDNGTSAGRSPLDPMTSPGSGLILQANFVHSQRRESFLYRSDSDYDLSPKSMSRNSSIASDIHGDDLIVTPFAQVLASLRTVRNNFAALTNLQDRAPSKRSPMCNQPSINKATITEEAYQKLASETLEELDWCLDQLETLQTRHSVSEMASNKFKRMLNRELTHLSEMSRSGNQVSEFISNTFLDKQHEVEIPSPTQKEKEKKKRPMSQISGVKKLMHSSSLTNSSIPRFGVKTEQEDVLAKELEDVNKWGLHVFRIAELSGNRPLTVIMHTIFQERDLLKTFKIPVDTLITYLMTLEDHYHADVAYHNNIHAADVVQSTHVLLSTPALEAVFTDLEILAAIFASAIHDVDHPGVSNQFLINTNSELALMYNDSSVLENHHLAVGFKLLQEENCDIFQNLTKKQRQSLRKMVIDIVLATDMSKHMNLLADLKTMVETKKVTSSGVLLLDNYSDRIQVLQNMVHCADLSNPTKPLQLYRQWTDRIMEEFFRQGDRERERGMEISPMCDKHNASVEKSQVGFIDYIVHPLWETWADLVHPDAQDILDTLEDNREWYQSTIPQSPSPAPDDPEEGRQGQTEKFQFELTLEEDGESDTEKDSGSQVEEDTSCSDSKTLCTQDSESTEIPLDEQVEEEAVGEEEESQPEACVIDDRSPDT

HaCaT = experiment: Anti-inflammatory activity in human HaCaT cells assessed as inhibition of M5-induced TNF-alpha production incubated for 24 hrs by ELISA; type: functional, cell-based
[2] = Cytotoxicity against mouse RAW264.7 cells assessed as reduction in cell viability incubated for 24 hrs by CCK-8 assay; type: toxicity, cell-based
[3] = Cytotoxicity against human HaCaT cells assessed as reduction in cell viability incubated for 24 hrs by CCK-8 assay; type: toxicity, cell-based
RAW264.7 [4] = experiment: Anti-inflammatory activity in mouse RAW264.7 cells assessed as inhibition of LPS-induced TNF-alpha production incubated for 24 hrs by ELISA; type: functional, cell-based; settings: RAW264.7, 24 h
RAW264.7 [5] = experiment: Anti-inflammatory activity in mouse RAW264.7 cells assessed as inhibition of LPS-induced IL-6 production incubated for 24 hrs by ELISA; type: functional, cell-based; settings: RAW264.7, 24 h
RAW264.7 [6] = experiment: Anti-inflammatory activity in mouse RAW264.7 cells assessed as inhibition of LPS-induced TNF-alpha production at 10 uM incubated for 24 hrs by ELISA relative to control; type: functional; design: scale not given: the % may be the effect or the level left
[7] = molecular target: T1, 3',5'-cyclic-AMP phosphodiesterase 4D; experiment: Inhibition of full-length PDE4D2 (unknown origin) using FAM-cAMP as substrate at 1 uM preincubated with compound for 15 mins followed by substrate addition and measured after 30 mins by fluorescence polarization based IMAP assay relative to control; settings: time 45.0 min
[8] = AUC (0 to infinity) in male ICR mouse at 5 mg/kg, iv measured for 0.083 to 24 hrs by LC-MS/MS analysis; type: ADME, organism-based; settings: in vivo, time 0.083-24 hrs
[9] = AUC (0 to t) in male ICR mouse at 5 mg/kg, iv measured for 0.083 to 24 hrs by LC-MS/MS analysis; type: ADME, organism-based; settings: in vivo, time 0.083-24 hrs
[10] = Half life in male ICR mouse at 5 mg/kg, iv measured for 0.083 to 24 hrs by LC-MS/MS analysis; type: ADME, organism-based; settings: in vivo, time 0.083-24 hrs
[11] = Cmax in male ICR mouse at 10 mg/kg, po measured for 0.25 to 24 hrs by LC-MS/MS analysis; type: ADME, organism-based; settings: in vivo, time 0.25-24 hrs
[12] = Apparent volume of distribution in male ICR mouse at 5 mg/kg, iv measured for 0.083 to 24 hrs by LC-MS/MS analysis; type: ADME, organism-based; settings: in vivo, time 0.083-24 hrs, read-out: Vz
Mus musculus [13] = experiment: (§1) Anti-inflammatory activity against imiquimod-induced psoriasis in male Balb/c mouse model assessed as increase in skin thickness at 0.3 to 1.2 % administration as ointment pretreated with IMQ for 4 hrs followed by compound addition once daily from day 2 to 8 by H and E staining based microscopic analysis; type: functional, organism-based; settings: dose 0.3-1.2 %, time 2-8 day
[14] = Clearance in male ICR mouse at 5 mg/kg, iv measured for 0.083 to 24 hrs by LC-MS/MS analysis; type: ADME, organism-based; settings: in vivo, time 0.083-24 hrs
[15] = AUC (0 to infinity) in male ICR mouse at 10 mg/kg, po measured for 0.25 to 24 hrs by LC-MS/MS analysis; type: ADME, organism-based; settings: in vivo, time 0.25-24 hrs
Mus musculus [16] = experiment: (§2) Anti-inflammatory activity against imiquimod-induced psoriasis in male Balb/c mouse model assessed as reduction in thickness score at 0.3 to 1.2 % administration as ointment pretreated with IMQ for 4 hrs followed by compound addition once daily from day 2 to 8; type: functional, organism-based; settings: dose 0.3-1.2 %, time 2-8 day
Mus musculus [17] = experiment: as §1, with “scales” for “thickness”; type: functional, organism-based; settings: dose 0.3-1.2 %, time 2-8 day
Mus musculus [18] = experiment: Anti-inflammatory activity against imiquimod-induced psoriasis in male Balb/c mouse model assessed as reduction in scales score at 0.3 to 1.2 % administration as ointment pretreated with IMQ for 4 hrs followed by compound addition once daily from day 2 to 8; type: functional, organism-based; settings: dose 0.3-1.2 %, time 2-8 day
[19] = AUC (0 to t) in male ICR mouse at 10 mg/kg, po measured for 0.25 to 24 hrs by LC-MS/MS analysis; type: ADME, organism-based; settings: in vivo, time 0.25-24 hrs
Mus musculus [20] = organism: Mus musculus; experiment: Anti-inflammatory activity against imiquimod-induced psoriasis in male Balb/c mouse model assessed as reduction in skin lesions pretreated with IMQ for 4 hrs followed by compound addition once daily from day 2 to 8; type: functional, organism-based; settings: dose 0.3-1.2 %, time 2-8 day
[21] = Drug absorption in suckling pig skin assessed as skin permeability by measuring transdermal amount per unit area administered topically as 1.2% ointment and measured upto 24 hrs by Franz diffusion cell system; type: ADME, tissue-based, Sus scrofa, Skin of body
Mus musculus [22] = experiment: Anti-inflammatory activity against imiquimod-induced psoriasis in male Balb/c mouse model assessed as inhibition of TNF-alpha expression in skin at 0.3 to 1.2 % administration as ointment pretreated with IMQ for 4 hrs followed by compound addition once daily from day 2 to 8 by ELISA; type: functional, organism-based; settings: dose 0.3-1.2 %, time 2-8 day
[23] = Initial plasma concentration in male ICR mouse at 5 mg/kg, iv measured for 0.083 to 24 hrs by LC-MS/MS analysis; type: ADME, organism-based; settings: time 0.083-24 hrs
[24] = Tmax in male ICR mouse at 10 mg/kg, po measured for 0.25 to 24 hrs by LC-MS/MS analysis; type: ADME, organism-based; settings: in vivo, time 0.25-24 hrs
Mus musculus [25] = experiment: Anti-inflammatory activity against imiquimod-induced psoriasis in male Balb/c mouse model assessed as reduction in spleen weight at 0.3 to 1.2 % administration as ointment pretreated with IMQ for 4 hrs followed by compound addition once daily from day 2 to 8; type: functional, organism-based; settings: dose 0.3-1.2 %, time 2-8 day
Mus musculus [26] = experiment: as §2, with “Ki67+ cells in back skin” for “thickness score”, “8 by Immunohistochemistry based microscopic analysis” for “8”; type: functional, organism-based; settings: dose 0.3-1.2 %, time 2-8 day
[27] = Drug absorption in suckling pig skin assessed as skin permeability by measuring steady state penetration rate administered topically as 1.2% ointment and measured upto 24 hrs by Franz diffusion cell system; type: ADME, tissue-based, Sus scrofa, Skin of body
[28] = Oral bioavailability in male ICR mouse at 10 mg/kg measured for 0.25 to 24 hrs by LC-MS/MS analysis; type: ADME, organism-based; settings: in vivo, time 0.25-24 hrs
Mus musculus [29] = experiment: as §1, with “reduction” for “increase”, “immune cell infiltration” for “skin thickness”; type: functional, organism-based; settings: dose 0.3-1.2 %, time 2-8 day
Mus musculus [30] = experiment: Anti-inflammatory activity against imiquimod-induced psoriasis in male Balb/c mouse model assessed as reduction in erythema score at 0.3 to 1.2 % administration as ointment pretreated with IMQ for 4 hrs followed by compound addition once daily from day 2 to 8; type: functional, organism-based; settings: dose 0.3-1.2 %, time 2-8 day
Mus musculus [31] = experiment: Anti-inflammatory activity against imiquimod-induced psoriasis in male Balb/c mouse model assessed as inhibition of IL-6 expression in skin at 0.3 to 1.2 % administration as ointment pretreated with IMQ for 4 hrs followed by compound addition once daily from day 2 to 8 by ELISA; type: functional, organism-based; settings: dose 0.3-1.2 %, time 2-8 day
[32] = Half life in male ICR mouse at 10 mg/kg, po measured for 0.25 to 24 hrs by LC-MS/MS analysis; type: ADME, organism-based; settings: in vivo, time 0.25-24 hrs

With `O=C(NCc1ncccn1)c1c[nH]c(-c2ccc(OC(F)F)c(OCC3CC3)c2)n1` the IC50 [1] was 0.0005 µM, the IC50 (HaCaT) was 19.3 µM and the CC50 at 24 h [2] was > 50 µM. For the same compound, the CC50 at 24 h [3] was > 50 µM, the IC50 (RAW264.7 [4]) was 27.3 µM and the IC50 (RAW264.7 [5]) was 38.4 µM.
`O=C(NCc1ccccn1)c1c[nH]c(-c2ccc(OC(F)F)c(OCC3CC3)c2)n1` gave an Activity (RAW264.7 [6]) of 6.39% and an inhibition [7] of 96.7%.
`O=C(Nc1ccc2[nH]ccc2c1)c1c[nH]c(-c2ccc(OC(F)F)c(OCC3CC3)c2)n1` showed an Activity (RAW264.7 [6]) of 21.36% and an inhibition [7] of 83.5%.
With `O=C(NCc1cc(F)ccc1F)c1c[nH]c(-c2ccc(OC(F)F)c(OC(F)F)c2)n1` the Activity (RAW264.7 [6]) was 14.69% and the inhibition [7] was 93.6%.
Compound `COC(=O)c1coc(-c2ccc(OC(F)F)c(OCC3CC3)c2)n1` has an Activity (RAW264.7 [6]) of 26.96% and an inhibition [7] of 70.1%.
For `Cc1ccc(-c2nc(C(=O)Nc3ccncc3)c[nH]2)cc1C`, the Activity (RAW264.7 [6]) was 11.94% and the inhibition [7] was 3.4%.
`O=C(NCc1cc(F)ccc1F)c1c[nH]c(-c2ccc(OC(F)F)c(OCC3CC3)c2)n1` gave an AUC(0-inf) [8] of 5020 ng·h/mL, an AUC(0-t) [9] of 5010 ng·h/mL and a half-life [10] of 0.94 h. For the same compound, the Cmax [11] was 810 ng/mL, the Vd [12] was 1.35 L/kg and the Activity (Mus musculus [13]) was “Active”. For the same compound, the IC50 (HaCaT) was 22.9 µM, the clearance [14] was 16.6 mL/min/kg and the AUC(0-inf) [15] was 3930 ng·h/mL. For the same compound, the Activity (Mus musculus [16]) was “Active”, the Activity (Mus musculus [17]) was “Active” and the CC50 at 24 h [2] was > 50 µM. The Activity (Mus musculus [18]) was “Active”, the CC50 at 24 h [3] was > 50 µM and the AUC(0-t) [19] was 3570 ng·h/mL. For the same compound, the Activity (Mus musculus [20]) was “Dose-dependent-effect”, the Drug absorption [21] was 81.9 microg/cm2 and the Activity (Mus musculus [22]) was “Active”. For the same compound, the IC50 (RAW264.7 [4]) was 21.4 µM, the C0 [23] was 7320 ng/mL and the Tmax [24] was 1 h. The Activity (Mus musculus [25]) was “Active”, the Activity (Mus musculus [26]) was “Active” and the Jss [27] was 3.45 ug/cm2.hr. For the same compound, the bioavailability [28] was 35.6%, the IC50 (RAW264.7 [5]) was 29.2 µM and the Activity (Mus musculus [29]) was “Active”. For the same compound, the Activity (Mus musculus [30]) was “Active”, the Activity (Mus musculus [31]) was “Active” and the half-life [32] was 2.21 h.
Compound `O=C(NCc1ccc(F)cc1F)c1coc(-c2ccc(OC(F)F)c(OCC3CC3)c2)n1` has an Activity (RAW264.7 [6]) of 18.06% and an inhibition [7] of 67.6%.
`O=C(Nc1ccncc1)c1c[nH]c(-c2ccc(OC(F)F)c(OCC3CC3)c2)n1` gave an Activity (RAW264.7 [6]) of 15.37% and an inhibition [7] of 99.3%.
Work on `COc1ccc(CNC(=O)c2c[nH]c(-c3ccc(OC(F)F)c(OCC4CC4)c3)n2)cn1` yielded an Activity (RAW264.7 [6]) of 7.74% and an inhibition [7] of 94.1%.
`O=C(NCc1c(F)cccc1F)c1coc(-c2ccc(OC(F)F)c(OCC3CC3)c2)n1` gave an IC50 [1] of 0.0273 µM and an Activity (RAW264.7 [6]) of 9.32%.
Work on `O=C(Nc1ccncc1)c1coc(-c2ccc(OC(F)F)c(OCC3CC3)c2)n1` yielded an Activity (RAW264.7 [6]) of 1.77% and an inhibition [7] of 59%.
Work on `O=C(NCc1ncccn1)c1c[nH]c(-c2cc(OCC3CC3)c(OC(F)F)c(OCC3CC3)c2)n1` yielded an inhibition [7] of 1.8%.
Work on `COc1cc(-c2nc(C(=O)NCc3c(F)cccc3F)c[nH]2)cc(OC)c1OC(F)F` yielded an inhibition [7] of 33.3%.
With `O=C(NCc1ccc2ccccc2c1)c1c[nH]c(-c2ccc(OC(F)F)c(OCC3CC3)c2)n1` the Activity (RAW264.7 [6]) was 9.03% and the inhibition [7] was 82.3%.
In the case of `O=C(NCc1ccccc1)c1c[nH]c(-c2ccc(OC(F)F)c(OCC3CC3)c2)n1`, the Activity (RAW264.7 [6]) is reported as 8.88% and the inhibition [7] is reported as 91.1%.
Compound `O=C(Nc1nc2ccccc2s1)c1coc(-c2ccc(OC(F)F)c(OCC3CC3)c2)n1` has an Activity (RAW264.7 [6]) of 25.84% and an inhibition [7] of 33.4%.
Compound `COc1cc(-c2nc(C(=O)Nc3ccc4ncsc4c3)c[nH]2)cc(OC)c1OC(F)F` has an inhibition [7] of 8.4%.
For `O=C(NCc1cnccn1)c1c[nH]c(-c2ccc(OC(F)F)c(OCC3CC3)c2)n1`, the Activity (RAW264.7 [6]) was 16.03% and the inhibition [7] was 95.9%.
